The results in this text go back to US20240366632A1, “METHODS FOR THE TREATMENT OF OCULAR ROSACEA” (INSTITUT NATIONAL DE LA SANTÉ ET DE LA RECHERCHE MÉDICALE, priority 2021, published 2024).

Assay [1] relates to corneal neovascularization induced by limbal deficiency. Put plainly: rat model of CN induced by de-epithelialization and limbal resection. The format is in vivo. Conditions: for corneal edema / corneal neovascularization / corneal re-epithelialization / corneal thickness: rat, limbal deficiency. From the text:
FIG. 1. Corneal de-epthelialization and limbal resection model treatment schemes.
Corneal neovascularization (CN) is a severe vision-threatening complication of OR.

In assay [2] the test system is GR/MR balance. Put plainly: GR and MR expression in the cornea/limbus of rats with limbal deficiency. The format is in vivo, rat. From the text: FIG. 4. Spironolactone up-regulates GR and the GR/MR balance in favor of GR pathway activation. The corneal de-epithelialization and limbal deficiency model induces a down regulation of GR genes at day 3 and 7, and is restored at day 14 when the cornea is healed. […] Spironolactone normalizes the GR/MR balance, favoring GR pathway activation.
Thus, spironolactone normalizes the GR/MR balance, favoring GR pathway activation.

The subject of assay [3] is genes regulated in the cornea and limbus. Put plainly: full transcriptomic regulation in the cornea and limbus. Type of assay: in vivo, rat. The settings on record: cornea and limbus at 3 and 7 days. The source says:
A full transcriptomic regulation induced in the cornea and limbus at 3 and 7 days after spironolactone systemic injection alone or with TA has been realized.

SMILES strings stand for the structures.

Take `COC(=O)[C@@H]1CC2=CC(=O)CC[C@]2(C)[C@@]23O[C@@H]2C[C@@]2(C)[C@@H](CC[C@@]24CCC(=O)O4)[C@H]13` [eplerenone, Pregn-4-ene-7,21-dicarboxylic acid, 9,11-epoxy-17-hydroxy-3-oxo-,γ-lactone, methyl ester, (7α, 11α, 17β)]: in assay [1], the corneal edema entry is “decrease”, the corneal neovascularization result was “inhibited”, the corneal re-epithelialization result was “improved” and the corneal thickness entry is “decrease”.
Consider `CC(=O)S[C@@H]1CC2=CC(=O)CC[C@]2(C)[C@H]2CC[C@@]3(C)[C@@H](CC[C@@]34CCC(=O)O4)[C@H]12` [spironolactone, 17-hydroxy-7α-mercapto-3-oxo-17α-pregn-4-ene-21-carboxylic acid γ-lactone acetate], for which the “GR expression in the cornea” value in assay [2] (day 3 and 7) is “up regulates and normalizes”. Moreover, the MR expression result in assay [2] (rat, in vivo) is on record as “does not influence”. Further, in assay [3], the “genes up or down regulated” value amounted to 75 genes. Further, in assay [1] (corneal sections at day 3), the “infiltration of ED1 positive inflammatory cells in corneal lesions” value is “reduced infiltration” and the “infiltration of IBA1-positive macrophages in corneal lesions” value was “reduced infiltration”. Moreover, in assay [1], the corneal edema entry is “decrease”, the corneal neovascularization entry is “inhibited”, the corneal re-epithelialization result is listed as “improved” and the corneal thickness result is recorded as “decrease”. In assay [1] (spironolactone given with TA injection), the “corneal re-epithelialization (corneal wound) delayed by the TA injection” value is on record as “improved”.
